Data from PubChem BioAssay AID1919008 (Molecular Pharmacology Branch, DTP, NCI, 2023).

System: DMS-114 complex spheroids with HUVEC/MSC, growth % test/control
Assay: Anticancer human tumor DMS-114 cell line growth inhibition [AhR];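 further: spheroids exposed to agents for 7 days before readout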;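 on viability, T/C: 100% = DMSO vehicle control wells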
Conditions: for IC50: curve of first compound; for viability, T/C: stronger effect = lower value
Description: Multicellular complex tumor spheroid response to aryl hydrocarbon receptor antagonists in combination with a variety of drugs and investigational agents in selected tumor cell lines
The current study was undertaken to assess response to aryl hydrocarbon receptor antagonists in combination with standard-of-care drugs and investigational agents in solid tumor complex spheroid models. Complex spheroids include a stromal component modeled by human endothelial cells (HUVEC) and fibroblasts modeled by human mesenchymal stem cells (MSCs). The concentration ranges selected for each drug and investigational agent were based upon clinically achievable concentrations if the clinical Cmax of the agent was known.
Compounds. The drugs and investigational agents: BAY 2416964 (NSC825713), GNF351 (NSC835774), CH-223191 (NSC835775), CPI-455 (NSC825282), aza-TdCyd (NSC777586), decitabine (NSC127716), belinostat (NSC758774), entinostat (NSC756642), pevonedistat (NSC761192), tazemetostat (NSC777109), talazoparib (NSC765396), olaparib (NSC753686), selinexor (NSC780203), nedisertib (M3814, NSC802822), bortezomib (NSC756655), venetoclax (NSC766270), doxorubicin (NSC123127), elimusertib (BAY189344, NSC800525), ceralasertib (AZD6738, NSC777638), TAK-243 (NSC785004), alisertib (NSC759677), etoposide (NSC141540), topotecan (NSC609699), eribulin (NSC707389), gemcitabine (NSC613327), carboplatin (NSC241240), cisplatin (NSC119875), and SN-38 (NSC673596) were obtained from the National Cancer Institute (NCI) Developmental Therapeutics Program Chemical Repository (32). The FDA-approved anticancer drug set is available from the Developmental Therapeutics Program at https://dtp.cancer.gov/organization/dscb/obtaining/available plates.htm. […] The stock solutions were prepared in dimethyl sulfoxide (DMSO, Sigma-Aldrich, St. Louis, MO, cat. D2650), except for the platinum compounds which were prepared in saline (Quality Biological, Gaithersburg, MD, cat. 114-055-101), at 800-fold the tested concentration and stored at -70 degrees C prior to their use. All drugs and investigational agents were tested over a range starting from a high concentration at or near the clinical Cmax and decreasing in half-log increments. If the clinical Cmax for an agent had not been determined, the highest concentration tested was 10 microM (Table 1).
Cell Culture. All cells were maintained in an incubator at 37 degrees C and 5% CO2 with 95% humidity. The PDC lines were cultured according to standard operating procedures established by the NCI PDMR (https://pdmr.cancer.gov). Briefly, all PDCs were thawed and cultured in Matrigel-coated flasks prepared with a working solution of 1X Ham's F-12 nutrient mix, without supplementation (Invitrogen, Waltham, MA, cat. 11765054), 100 U/mL penicillin-streptomycin (Invitrogen, cat. 15140122), and 2.5% Matrigel (Corning Inc., Corning, NY, cat. 354248) for the first three passages. All PDCs were cultured in complete DMEM/F-12 media containing advanced DMEM/F-12 (Invitrogen, cat. 12634028), 4.9% defined fetal bovine serum, heat inactivated (HyClone Laboratories Inc., Logan, UT, cat. SH30070.03HI), 389 ng/mL hydrocortisone (Sigma-Aldrich, cat. H4001), 9.7 ng/mL human EGF recombinant protein (Invitrogen, cat. PHG0313), 23.4 microg/mL adenine (Sigma-Aldrich, cat. A2786), 97.3 U/mL penicillin-streptomycin (Invitrogen, cat. 15140122), 1.9 mM L-glutamine (Invitrogen, cat. 25030081), and 9.7 microM Y-27632 dihydrochloride (Tocris Bioscience, Bristol, United Kingdom, cat. 1254). The PDCs were cultured in complete DMEM/F12 media without 10 microM Y-27632 dihydrochloride for at least two passages prior to the screen. The established cell lines NCI-H1341 and […] were cultured in DMEM/F-12, HEPES (Invitrogen, cat. 11330032), 5% defined fetal bovine serum (HyClone Laboratories Inc., cat. SH30070.03), ITS premix universal culture supplement [insulin (5 microg/mL), transferrin (5 microg/mL), and selenious acid (5 ng/mL)] […]

For CCN(c1cc(-c2ccc(CN3CCOCC3)cc2)cc(C(=O)NCc2c(C)cc(C)[nH]c2=O)c1C)C1CCOCC1 + CC(CO)NC(=O)c1cc(-c2ccc(Cl)cc2)nn(-c2cnn(C)c2)c1=O, the IC50 (second compound 0.1 µM) was over 3000 nM, the IC50 (second compound 0.316 µM) was over 3000 nM and the IC50 (second compound 1 µM) was over 3000 nM. It also gave an IC50 (second compound 3.16 µM) of over 3000 nM, an IC50 (second compound 10 µM) of over 3000 nM and a viability, T/C (second compound 0.1 µM, first compound 0.00949 µM) of 95.4%. The viability, T/C (second compound 0.1 µM, first compound 0.03 µM) was 86.3%, the viability, T/C (second compound 0.1 µM, first compound 0.0949 µM) was 103% and the viability, T/C (second compound 0.1 µM, first compound 0.3 µM) was 100%. For the same molecule, the viability, T/C (second compound 0.1 µM, first compound 0.949 µM) was 98%, the viability, T/C (second compound 0.1 µM, first compound 3 µM) was 92.5% and the viability, T/C (second compound 0.316 µM, first compound 0.00949 µM) was 110%. It also gave a viability, T/C (second compound 0.316 µM, first compound 0.03 µM) of 107%, a viability, T/C (second compound 0.316 µM, first compound 0.0949 µM) of 104% and a viability, T/C (second compound 0.316 µM, first compound 0.3 µM) of 102%. For the same molecule, the viability, T/C (second compound 0.316 µM, first compound 0.949 µM) was 92.8%, the viability, T/C (second compound 0.316 µM, first compound 3 µM) was 93% and the viability, T/C (second compound 1 µM, first compound 0.00949 µM) was 98.3%. For the same molecule, the viability, T/C (second compound 1 µM, first compound 0.03 µM) was 106%, the viability, T/C (second compound 1 µM, first compound 0.0949 µM) was 109% and the viability, T/C (second compound 1 µM, first compound 0.3 µM) was 104%. It also gave a viability, T/C (second compound 1 µM, first compound 0.949 µM) of 95.7%, a viability, T/C (second compound 1 µM, first compound 3 µM) of 101% and a viability, T/C (second compound 3.16 µM, first compound 0.00949 µM) of 118%. It also gave a viability, T/C (second compound 3.16 µM, first compound 0.03 µM) of 96.5%, a viability, T/C (second compound 3.16 µM, first compound 0.0949 µM) of 111% and a viability, T/C (second compound 3.16 µM, first compound 0.3 µM) of 104%. For the same molecule, the viability, T/C (second compound 3.16 µM, first compound 0.949 µM) was 93.3%, the viability, T/C (second compound 3.16 µM, first compound 3 µM) was 91% and the viability, T/C (second compound 10 µM, first compound 0.00949 µM) was 117%. It also gave a viability, T/C (second compound 10 µM, first compound 0.03 µM) of 98.1%, a viability, T/C (second compound 10 µM, first compound 0.0949 µM) of 117% and a viability, T/C (second compound 10 µM, first compound 0.3 µM) of 100%. The viability, T/C (second compound 10 µM, first compound 0.949 µM) was 92.4% and the viability, T/C (second compound 10 µM, first compound 3 µM) was 86.5%.

Work on Cn1ncnc1C1c2n[nH]c(=O)c3cc(F)cc(c23)NC1c1ccc(F)cc1 (stereo not given) + Cc1cncc(-c2nc(NCCc3c[nH]c4ccccc34)c3ncn(C(C)C)c3n2)c1 yielded an IC50 (second compound 0.1 µM) of over 100 nM, an IC50 (second compound 0.316 µM) of over 100 nM and an IC50 (second compound 1 µM) of over 100 nM. The IC50 (second compound 3.16 µM) was over 100 nM, the IC50 (second compound 10 µM) was under 0.316 nM and the viability, T/C (second compound 0.1 µM, first compound 0.000316 µM) was 103%. The viability, T/C (second compound 0.1 µM, first compound 0.001 µM) was 93.9%, the viability, T/C (second compound 0.1 µM, first compound 0.00316 µM) was 100% and the viability, T/C (second compound 0.1 µM, first compound 0.01 µM) was 105%. The viability, T/C (second compound 0.1 µM, first compound 0.0316 µM) was 98.2%, the viability, T/C (second compound 0.1 µM, first compound 0.1 µM) was 75.5% and the viability, T/C (second compound 0.316 µM, first compound 0.000316 µM) was 87.5%. The viability, T/C (second compound 0.316 µM, first compound 0.001 µM) was 89.6%, the viability, T/C (second compound 0.316 µM, first compound 0.00316 µM) was 88.1% and the viability, T/C (second compound 0.316 µM, first compound 0.01 µM) was 87.1%. It also gave a viability, T/C (second compound 0.316 µM, first compound 0.0316 µM) of 84.7%, a viability, T/C (second compound 0.316 µM, first compound 0.1 µM) of 80.2% and a viability, T/C (second compound 1 µM, first compound 0.000316 µM) of 94.1%. The viability, T/C (second compound 1 µM, first compound 0.001 µM) was 99%, the viability, T/C (second compound 1 µM, first compound 0.00316 µM) was 96.8% and the viability, T/C (second compound 1 µM, first compound 0.01 µM) was 93.6%. It also gave a viability, T/C (second compound 1 µM, first compound 0.0316 µM) of 93.3%, a viability, T/C (second compound 1 µM, first compound 0.1 µM) of 81.3% and a viability, T/C (second compound 3.16 µM, first compound 0.000316 µM) of 85.4%. The viability, T/C (second compound 3.16 µM, first compound 0.001 µM) was 95.4%, the viability, T/C (second compound 3.16 µM, first compound 0.00316 µM) was 89.3% and the viability, T/C (second compound 3.16 µM, first compound 0.01 µM) was 77.3%. The viability, T/C (second compound 3.16 µM, first compound 0.0316 µM) was 79.2%, the viability, T/C (second compound 3.16 µM, first compound 0.1 µM) was 74.9% and the viability, T/C (second compound 10 µM, first compound 0.000316 µM) was 47.6%. It also gave a viability, T/C (second compound 10 µM, first compound 0.001 µM) of 50.7%, a viability, T/C (second compound 10 µM, first compound 0.00316 µM) of 42.7% and a viability, T/C (second compound 10 µM, first compound 0.01 µM) of 41.6%. The viability, T/C (second compound 10 µM, first compound 0.0316 µM) was 37.6% and the viability, T/C (second compound 10 µM, first compound 0.1 µM) was 45.2%.
